From PMC11357256, “Selectivity Screening and Structure–Cytotoxic Activity Observations of Selected Oleanolic Acid (OA)-Type Saponins from the Amaranthaceae Family on a Wiade Panel of Human Cancer Cell Lines” (Molecules, 2024)

Experiments:
FTC133 = assay: MTT cell viability assay, FTC133 follicular thyroid carcinoma cells; assay type: cell-based, human
Description: (§1) Cell lines used in the study were grouped as follows: skin panel (melanomas: HTB140, derived from metastatic site: lymph node, ATCC Hs 294 T; malignant A375, ATCC CRL-1619; stage I primary WM793, RRID:CVCL 8787; skin keratinocytes HaCaT); prostate panel (prostate carcinomas: Du145, derived from metastatic site: brain, ATCC HTB-81; grade IV PC3, derived from metastatic site: bone, ATCC CRL-1435, LNCaP, derived from the metastatic site: lymph node, ATCC CRL-1740; prostate epithelial, PNT2, ECACC 95012613); gastrointestinal panel (colorectal adenocarcinomas: Caco2, ATCC HTB-37, HT29, ATCC HTB-38, DLD-1, ATCC CCL-221, HCT116, ATCC CCL-247, and colon epithelial cells CCD 841 CoN, ATCC CRL-1790; hepatocellular carcinoma HepG2, ATCC HB-8065); thyroid panel (follicular thyroid carcinoma FTC133, ECACC 9406090, undifferentiated thyroid carcinoma 8505C, ECACC 94090184, papillary thyroid carcinoma TPC-1, SCC147, normal thyroid follicular epithelial Nthy-ori 3–1, ECACC 90011609); and breast panel (ER-positive breast adenocarcinoma MCF7, ATCC HTB-22; ER-negative breast adenocarcinoma MDA-MB-231, ATCC HTB-26; breast epithelial MCF10A, ATCC CRL-10317). Cells were grown under standard conditions (37 °C, 5% CO2, relative humidity), and culture media (DMEM/F12 for PNT2, WM 793, HT29, PC3, FTC133, 8505 C, MDA-MB-231, TPC-1; DMEM Low Glucose for DU145; DMEM High Glucose for HTB140, A375, HaCaT; MEM with NEAA for Caco2 and MCF7; RPMI1640 with sodium pyruvate for LNCaP; DMEM/F12 with 20 ng/mL epidermal growth factor (EGF), 10 μg/mL insulin, 0.5 μg/mL hydrocortisone, 100 ng/mL cholera toxin) for MCF10A) supplemented with 10% fetal bovine serum (FBS) or 5% donor horse serum for MCF10A, and 1% antibiotics solution (10,000 U penicillin and 10 mg streptomycin/mL) […], as previously described. All cell lines, culture media, and supplements were from Sigma-Aldrich (Germany).
(§2) The cells were seeded in 96-well plates (1.5 × 10^4 cells/well). After 24 h, fresh medium was added, containing the tested compounds (0.5–100 μg/mL) and incubated for 24 or 48 h. Cell viability was determined by MTT assay, according to the manufacturer’s instructions, as described previously. Each experiment was performed in triplicate. The absorbance was measured at 570 nm using a Biotek Synergy microplate reader (BioTek Instruments Inc., Winooski, VT, USA). Cell viability was expressed as a percent of control (untreated cells). Doxorubicin was used as a reference drug.
(§3) The selectivity index (SI) was calculated from the following formula:SI = IC50 of compound in a normal cell line/IC50 of compound in cancer cell line.IC50, half maximal inhibitory concentration, is a concentration required to kill 50% of the cells.

HCT116 = assay: MTT cell viability assay, HCT116 colon cancer cells; assay type: cell-based; details: Homo sapiens, HCT-116; HCT116, 24 h
Description: as §1, §2

A375 = assay: MTT cell viability assay, A375 malignant melanoma cells; assay type: cell-based, human
Description: as §1, §2, §3

PC3 = assay: MTT cell viability assay, PC3 prostate carcinoma cells; assay type: cell-based; details: Homo sapiens, PC-3; PC3, 24 h
Description: as §1, §2

HT29 = assay: MTT cell viability assay, HT29 colorectal adenocarcinoma cells; assay type: cell-based; details: Homo sapiens, HT-29; HT29, 24 h
Description: as §1, §2

DLD-1 = assay: MTT cell viability assay, DLD-1 colon cancer cells; assay type: cell-based; details: Homo sapiens, DLD-1, 24 h
Description: as §1, §2

HaCaT = assay: MTT cell viability assay, HaCaT keratinocytes; assay type: cell-based; details: Homo sapiens, 24 h
Description: as §1, §2

LNCaP = assay: MTT cell viability assay, LNCaP prostate adenocarcinoma cells; assay type: cell-based; details: Homo sapiens, 24 h
Description: as §1, §2

HTB-140 = assay: MTT cell viability assay, HTB-140 metastatic melanoma cells; assay type: cell-based, human
Description: as §1, §2, §3

HepG2 = assay: MTT cell viability assay, HepG2 hepatocellular carcinoma cells; assay type: cell-based; details: Homo sapiens, HepG2, 24 h
Description: as §1, §2

Caco-2 = assay: MTT cell viability assay, Caco-2 colon cancer cells; assay type: cell-based; details: Homo sapiens, Caco-2, 24 h
Description: as §1, §2

PNT2 = assay: MTT cell viability assay, PNT2 normal prostate epithelial cells; assay type: cell-based; details: Homo sapiens, 24 h
Description: as §1, §2

TPC-1 = assay: MTT cell viability assay, TPC-1 papillary thyroid carcinoma cells; assay type: cell-based, human
Description: as §1, §2, §3

CCD 841 CoN = assay: MTT cell viability assay, CCD 841 CoN normal colon epithelial cells; assay type: cell-based; details: Homo sapiens, 24 h
Description: as §1, §2

8505C = assay: MTT cell viability assay, 8505C undifferentiated thyroid carcinoma cells; assay type: cell-based, human; details: Homo sapiens, 8505C, 24 h
Description: as §1, §2, §3

Nthy-ori 3-1 = assay: MTT cell viability assay, Nthy-ori 3-1 normal thyroid epithelial cells; assay type: cell-based; details: Homo sapiens, 24 h
Description: as §1, §2

WM793 = assay: MTT cell viability assay, WM793 primary melanoma cells; assay type: cell-based, human; details: Homo sapiens, WM793, 24 h
Description: as §1, §2, §3

Du-145 = assay: MTT cell viability assay, Du-145 prostate carcinoma cells; assay type: cell-based; details: Homo sapiens, DU-145, 24 h
Description: as §1, §2

COc1cccc2c1C(=O)c1c(O)c3c(c(O)c1C2=O)C[C@@](O)(C(=O)CO)C[C@@H]3O[C@H]1C[C@H](N)[C@H](O)[C@H](C)O1 [DOX, Doxorubicin]
IC50 (FTC133; Homo sapiens, FTC-133, FTC133, 24 h): 4 µg/mL | Selectivity Index (SI) (FTC133; IC50 Nthy-ori 3-1 / IC50 FTC133, 24 h): 6.76 | IC50 (HCT116): 4 µg/mL | IC50 (A375; Homo sapiens, A-375, A375, 24 h): 0.6 µg/mL | Selectivity Index (SI) (A375; IC50 HaCaT / IC50 A375, 24 h): 7.9 | IC50 (PC3): > 50 µg/mL | IC50 (HT29): 1.5 µg/mL | IC50 (DLD-1): 1.1 µg/mL | IC50 (HaCaT): 4.7 µg/mL | IC50 (LNCaP): 1.8 µg/mL | IC50 (HTB-140; Homo sapiens, HTB-140, 24 h): 5.7 µg/mL | Selectivity Index (SI) (HTB-140; IC50 HaCaT / IC50 HTB-140, 24 h): 0.8 | IC50 (HepG2): 1 µg/mL | IC50 (Caco-2): 3.4 µg/mL | IC50 (PNT2): 1.4 µg/mL | IC50 (TPC-1; Homo sapiens, TPC1, TPC-1, 24 h): 3.9 µg/mL | Selectivity Index (SI) (TPC-1; IC50 Nthy-ori 3-1 / IC50 TPC-1, 24 h): 7.0 | IC50 (CCD 841 CoN): 1.7 µg/mL | IC50 (8505C): > 40 µg/mL | IC50 (Nthy-ori 3-1): 27.2 µg/mL | IC50 (WM793): > 40 µg/mL | IC50 (Du-145): 3.2 µg/mL
